Test results from patent publication US20260285846A1, “REV-ERB AGONISTS FOR TH17-MEDIATED INFLAMMATORY DISORDERS” (UNIVERSITY OF FLORID RESEARCH FOUNDATION, iNCORPORATED, priority 2021, published 2026).

Molecular target: REV-ERBα LBD (Homo sapiens, UniProt P20393, DEL324-422)
Assay: biochemical
Settings: FRET assay; 6xHistag-REV-ERBα LBD with FITC-labeled SMRT corepressor peptide; read-out: REVERBα (Agonism of REV-ERBα, EC50)
Description: TR-FRET corepressor interaction assay. The time-resolved fluorescence resonance energy transfer (TR-FRET) assay was performed in black low-volume 384-well plates (Greiner). Each well contained 4 nM 6×Histag-REV-ERBα LBD (human; residues 281-614 A324-422) or 6×Histag-REV-ERBα LBD (human; residues 381-579) protein expressed in and purified from Escherichia coli using nickel affinity and size exclusion chromatography; 1 nM LanthaScreen Elite Tb-anti-HIS Antibody (Thermo Fisher Scientific); and 400 nM FITC-labeled peptide derived from the SMRT corepressor ([…]) containing a N-terminal FITC label with a six-carbon linker (Ahx) and an amidated C-terminus for stability (synthesized by LifeTein) in TR-FRET buffer (20 mM potassium phosphate, pH 7.4, 50 mM potassium chloride, 1 mM dithiothreitol, and 0.005% Tween-20). Ligand stocks were prepared via serial dilution in DMSO, added to wells in triplicate, and plates were incubated at 4° C. for 2 h and read using a BioTek Synergy Neo multimode plate reader. The Tb donor was excited at 340 nm; its fluorescence emission was monitored at 495 nm, and the acceptor FITC emission was measured at 520 nm; and the TR-FRET ratio was calculated as the signal at 520 nm divided by the signal at 495 nm. Data were plotted using GraphPad Prism as TR-FRET ratio vs. ligand concentration and fit to sigmoidal dose response curve equation.
Exemplary compounds of the present disclosure were assayed as described above to assess agonism of REV-ERBα. Results of the FRET assay are shown in Table 2 below (A: EC50<100 nM; B: EC50 100 nM-1000 nM; C: EC50>1000 nM; NT: not tested).

REV-ERBα LBD, sequence (P20393 with tags, fused parts or gaps DEL324-422): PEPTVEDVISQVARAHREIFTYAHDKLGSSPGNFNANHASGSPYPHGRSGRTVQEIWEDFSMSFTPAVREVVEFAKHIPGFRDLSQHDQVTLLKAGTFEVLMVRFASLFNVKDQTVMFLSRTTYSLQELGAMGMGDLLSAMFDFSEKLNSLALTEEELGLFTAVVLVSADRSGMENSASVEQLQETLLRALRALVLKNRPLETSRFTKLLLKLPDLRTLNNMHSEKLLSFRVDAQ
REV-ERBα LBD, sequence (Q9Y618 2335-2356 partner limits assumed): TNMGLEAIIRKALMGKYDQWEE

| EC50 | Structure (SMILES) |
| --- | --- |
| < 100 nM | O=S(=O)(N[C@@H](c1cn(C2CCC2)c2cc(-c3ncc(F)cc3C(F)(F)F)c(F)cc12)C(F)F)C1CC1 [Compound 156, (S)—N-(1-(1-cyclobutyl-5-fluoro-6-(5-fluoro-3-(trifluoromethyl)pyridin-2-yl)-1H-indol-3-yl)-2,2-difluoroethyl)cyclopropanesulfonamide] |
| 100 to 1000 nM | O=S(=O)(N[C@@H](c1cn(C2COC2)c2cc(-c3ccc(F)cc3C(F)(F)F)c(F)cc12)C(F)F)C1CC1 [Compound 176, (S)—N-(2,2-difluoro-1-(5-fluoro-6-(4-fluoro-2-(trifluoromethyl)phenyl)-1-(oxetan-3-yl)-1H-indol-3-yl)ethyl)cyclopropanesulfonamide] |
| < 100 nM | CC(C)(C)Cn1cc([C@H](NS(=O)(=O)C2CC2)C(F)F)c2cc(F)c(-c3c(F)cccc3C(F)F)cc21 [Compound 116, N-((1S)-1-(6-(2-(difluoromethyl)-6-fluorophenyl)-5-fluoro-1-neopentyl-1H-indol-3-yl)-2,2-difluoroethyl)cyclopropanesulfonamide] |
| < 100 nM | CC(C)(C)Cn1cc([C@H](NS(=O)(=O)C2CC2)C(F)F)c2ccc(-c3ncc(F)cc3C(F)(F)F)cc21 [Compound 53, (S)—N-(2,2-difluoro-1-(6-(5-fluoro-3-(trifluoromethyl)pyridin-2-yl)-1-neopentyl-1H-indol-3-yl)ethyl)cyclopropanesulfonamide] |
| < 100 nM | CC(C)(C)Cn1cc([C@H](NS(=O)(=O)C2CC2)C(F)F)c2ccc(-c3cnccc3C(F)(F)F)cc21 [Compound 79, (S)—N-(2,2-difluoro-1-(1-neopentyl-6-(4-(trifluoromethyl)pyridin-3-yl)-1H-indol-3-yl)ethyl)cyclopropanesulfonamide] |
| 100 to 1000 nM | CC(NS(=O)(=O)C1CC1)c1cn(CC(C)(C)C)c2cc(-c3cncc(C#N)c3)c(F)cc12 (centres unmarked) [Compound 37, N-[1-[6-(5-cyano-3-pyridyl)-1-(2,2-dimethylpropyl)-5-fluoro-indol-3-yl]ethyl]cyclopropanesulfonamide] |
| < 100 nM | CC(C)(C)Cn1cc([C@H](NS(=O)(=O)C2CC2)C(F)F)c2cc(F)c(-c3ccncc3C(F)(F)F)cc21 [Compound 114, (S)—N-(2,2-difluoro-1-(5-fluoro-1-neopentyl-6-(3-(trifluoromethyl)pyridin-4-yl)-1H-indol-3-yl)ethyl)cyclopropanesulfonamide] |
| < 100 nM | CC(C)(C)Cn1cc([C@H](NS(=O)(=O)C2CC2)C(F)F)c2ccc(-c3ccc(F)cc3C(F)(F)F)nc21 [Compound 4, (S)—N-(2,2-difluoro-1-(6-(4-fluoro-2-(trifluoromethyl)phenyl)-1-neopentyl-1H-pyrrolo[2,3-b]pyridin-3-yl)ethyl)cyclopropanesulfonamide] |
| < 100 nM | CC(C)(C)Cn1cc([C@H](NS(=O)(=O)C2CC2)C(F)F)c2cc(F)c(-c3ncc(F)cc3F)cc21 [Compound 91, (S)—N-(1-(6-(3,5-difluoropyridin-2-yl)-5-fluoro-1-neopentyl-1H-indol-3-yl)-2,2-difluoroethyl)cyclopropanesulfonamide] |
| < 100 nM | CC(C)(C)Cn1cc([C@H](NS(=O)(=O)C2CC2)C(F)F)c2cc(F)c(-c3ncc(Cl)cc3F)cc21 [Compound 92, (S)—N-(1-(6-(5-chloro-3-fluoropyridin-2-yl)-5-fluoro-1-neopentyl-1H-indol-3-yl)-2,2-difluoroethyl)cyclopropanesulfonamide] |
| < 100 nM | CC(C)(C)Cn1cc([C@H](NS(=O)(=O)C2CCC2)C(F)F)c2cc(F)c(-c3c(C#N)cccc3C(F)(F)F)cc21 [Compound 136, N-((1S)-1-(6-(2-cyano-6-(trifluoromethyl)phenyl)-5-fluoro-1-neopentyl-1H-indol-3-yl)-2,2-difluoroethyl)cyclobutanesulfonamide] |
| 100 to 1000 nM | CC(NS(=O)(=O)C1CC1)c1cn(CC(C)(C)C)c2cc(-c3cnccc3C#N)c(F)cc12 (single isomer, unassigned) [Compound 33, (S or R) N-(1-(6-(4-cyanopyridin-3-yl)-5-fluoro-1-neopentyl-1H-indol-3-yl)ethyl)cyclopropanesulfonamide] |
| < 100 nM | CC(C)(C)Cn1cc([C@H](NS(=O)(=O)C2CC2)C(F)(F)F)c2cc(F)c(-c3cccnc3C(F)(F)F)cc21 [Compound 171, (S)—N-(2,2,2-trifluoro-1-(5-fluoro-1-neopentyl-6-(2-(trifluoromethyl)pyridin-3-yl)-1H-indol-3-yl)ethyl)cyclopropanesulfonamide] |
| < 100 nM | CC(C)(C)Cn1cc([C@H](NS(=O)(=O)C2CC2)C(F)F)c2cc(F)c(-c3cc(F)cnc3C#N)cc21 [Compound 96, (S)—N-(1-(6-(2-cyano-5-fluoropyridin-3-yl)-5-fluoro-1-neopentyl-1H-indol-3-yl)-2,2-difluoroethyl)cyclopropanesulfonamide] |
| < 100 nM | CC(C)(C)Cn1cc([C@H](NS(=O)(=O)C2CC2)C(F)F)c2cc(F)c(-c3ncc(F)cc3C(F)F)cc21 [Compound 134, (S)—N-(1-(6-(3-(difluoromethyl)-5-fluoropyridin-2-yl)-5-fluoro-1-neopentyl-1H-indol-3-yl)-2,2-difluoroethyl)cyclopropanesulfonamide] |
| < 100 nM | CC(NS(=O)(=O)C1CC1)c1cn(CC(C)(C)C)c2cc(-c3cc(F)cnc3C#N)c(F)cc12 (centres unmarked) [Compound 67, N-(1-(6-(2-cyano-5-fluoropyridin-3-yl)-5-fluoro-1-neopentyl-1H-indol-3-yl)ethyl)cyclopropanesulfonamide] |
| < 100 nM | [2H]C1([2H])CC(S(=O)(=O)N[C@@H](c2cn(CC(C)(C)C)c3cc(-c4ccccc4C(F)(F)F)ccc23)C(F)F)C1 [Compound 163, (S)—N-(2,2-difluoro-1-(1-neopentyl-6-(2-(trifluoromethyl)phenyl)-1H-indol-3-yl)ethyl)cyclobutane-1-sulfonamide-3,3-d2] |
| < 100 nM | CC(C)(C)Cn1cc([C@H](NS(=O)(=O)C2CC2)C(F)F)c2ccc(-c3c(C(F)(F)F)ccnc3C#N)cc21 [Compound 82, (S)—N-(1-(6-(2-cyano-4-(trifluoromethyl)pyridin-3-yl)-1-neopentyl-1H-indol-3-yl)-2,2-difluoroethyl)cyclopropanesulfonamide] |
| < 100 nM | CC(C)(C)Cn1cc([C@H](NS(=O)(=O)C2CCC2)C(F)F)c2cc(F)c(-c3cc(F)cnc3C(F)(F)F)cc21 [Compound 137, (S)—N-(2,2-difluoro-1-(5-fluoro-6-(5-fluoro-2-(trifluoromethyl)pyridin-3-yl)-1-neopentyl-1H-indol-3-yl)ethyl)cyclobutanesulfonamide] |
| < 100 nM | CC(NS(=O)(=O)C1CC1)c1cn(CC(C)(C)C)c2cc(-c3ncccc3F)c(F)cc12 (centres unmarked) [Compound 59, N-[1-[1-(2,2-dimethylpropyl)-5-fluoro-6-(3-fluoro-2-pyridyl)indol-3-yl]ethyl]cyclopropanesulfonamide] |
| < 100 nM | CC(C)(C)Cn1cc([C@H](NS(=O)(=O)C2CC2)C(F)F)c2ccc(-c3ccc(=O)[nH]c3C(F)(F)F)cc21 [Compound 166, (S)—N-(2,2-difluoro-1-(1-neopentyl-6-(6-oxo-2-(trifluoromethyl)-1,6-dihydropyridin-3-yl)-1H-indol-3-yl)ethyl)cyclopropanesulfonamide] |
| < 100 nM | CC(C)(C)Cn1cc([C@H](NS(=O)(=O)C2CC2)C(F)F)c2cc(F)c(-c3ncccc3F)cc21 [Compound 89, (S)—N-(2,2-difluoro-1-(5-fluoro-6-(3-fluoropyridin-2-yl)-1-neopentyl-1H-indol-3-yl)ethyl)cyclopropanesulfonamide] |
| < 100 nM | CC(C)(C)Cn1cc([C@H](NS(=O)(=O)C2CC2)C(F)F)c2ccc(-c3c[n+]([O-])ccc3C(F)(F)F)cc21 [Compound 107, (S)-3-(3-(1-(cyclopropanesulfonamido)-2,2-difluoroethyl)-1-neopentyl-1H-indol-6-yl)-4-(trifluoromethyl)pyridine 1-oxide] |
| < 100 nM | CC(C)(C)Cn1cc([C@H](NS(=O)(=O)C2CC2)C(F)F)c2cc(F)c(-c3c(C(F)(F)F)ccnc3C#N)cc21 [Compound 99, N-((1S)-1-(6-(2-cyano-4-(trifluoromethyl)pyridin-3-yl)-5-fluoro-1-neopentyl-1H-indol-3-yl)-2,2-difluoroethyl)cyclopropanesulfonamide] |
| 100 to 1000 nM | CC(NS(=O)(=O)C1CC1)c1cn(CC(C)(C)C)c2cc(-c3ccc(F)cn3)c(F)cc12 (centres unmarked) [Compound 64, N-(1-(5-fluoro-6-(5-fluoropyridin-2-yl)-1-neopentyl-1H-indol-3-yl)ethyl)cyclopropanesulfonamide] |
| < 100 nM | CC(C)(C)Cn1cc([C@H](NS(=O)(=O)C2CC(F)C2)C(F)F)c2ccc(-c3cccnc3C(F)(F)F)cc21 (stereo partly drawn) [Compound 46, (S)—N-(2,2-difluoro-1-(1-neopentyl-6-(2-(trifluoromethyl)pyridin-3-yl)-1H-indol-3-yl)ethyl)-3-fluorocyclobutane-1-sulfonamide] |
